Here are results for three molecules from US20140335050A1, “METHODS, COMPOSITIONS, AND KITS FOR THE TREATMENT OF CANCER” (The General Hospital Corporation, priority 2011, published 2014).

Each structure is given as a SMILES string.

Format in all cases: cell-based, human
Assay [1] relates to MU89 cell line. Put plainly: Western blot (BRAF, Melan-A/MART-1, TRP-2, phosphorylated MEK and ERK). As for the experimental part:
A. Western blot performed on extracts of the MU89 cell line treated as indicated for three days. Extracts were probed with antibodies to BRAF, Melan-A/MART-1, TRP-2, or beta-Actin. 30 μg of total protein was loaded in each lane of the gel. […] B. Protein gel electrophoresis was performed using 30 μg of total protein extracts prepared from the indicated cell lines. Cells were untreated (control) or treated with 0.15 μg/ml of BIIB021 for three days. After transfer Western blots were probed with antibodies to phosphorylated MEK (p-MEK) or β-Actin.
FIG. 17 is a series of Western blots that show changes in protein levels and state of phosphorylation after treatment with an Hsp90 inhibitor. A primary Anti BRAF (H145) antibody was used at a 1:5000 dilution. A secondary Goat anti rabbit antibody was used at a dilution of 1:5000. […]
To address the effect of Hsp90 inhibition on the MAP kinase pathway, protein levels and signaling activity (protein phosphorylation levels) of the proteins in this pathway were analyzed directly. […]
Cell lysates were prepared using RIPA buffer from Santa Cruz (Santa Cruz, Calif.) containing protease and phosphatase inhibitors. Protein concentrations were determined using Bradford assay from BioRad (Hercules, Calif.). […] Sizes of proteins were determined by comparison to the Broad prestained protein standard ladder from BioRad (Hercules, Calif.).
(Immunoblotting shows a protein as a band on a membrane.)

Assay [2] concerns MM96L+ melanoma cell line. Put plainly: Intracellular antibody staining and flow cytometry (Melan-A/MART-1, gp100/HMB45). The conditions noted are these: MM96L+ (BRAF M/WT, NRAS WT); 3 days; 17-AEP 1.00, CCT018159 5.00, PU-H71 0.30 μg/ml. As for the experimental part:
Several cell lines expressing varying native-sequences, (wild-type (WT) or mutant (M) alleles of these genes were evaluated), to determine if there is a relationship between levels of Hsp90 inhibitor-mediated antigen up-regulation and BRAF and NRAS mutational status. Mutant status of the NRAS and BRAF loci were determined previously.
Cells were plated at a density of 1×10^5 in 1 ml of medium in a 24-well plate and cultured for varying times as indicated in results. Typically, 3 days of culture in the presence of Hsp90 inhibitors was optimal for the functional studies performed. After incubation, cells were collected by trypsinization and then evaluated by flow cytometry.
Intracellular staining and flow cytometric analyses of cytoplasmic Melan-A/MART-1, and gp100 expression were performed as described previously. Cells were fixed with 1% formaldehyde, permeabilized with 0.1% saponin, stained with monoclonal antibodies to melanocyte antigens. Antibodies were obtained with specificity for: Melan-A/MART-1 from Vector Labs (Burlingame, Calif.); gp100/HMB45 from DakoCytomation (Carpinteria, Calif.) and then visualized with goat anti-mouse FITC-conjugated secondary antibody from Invitrogen (Frederick, Md.). The level of EGFP was determined by flow cytometry of unfixed cells washed and resuspended in 1×PBS. […]
(In flow cytometry, cells or beads pass a laser one at a time.)

The subject of assay [3] is Raji B cell lymphoma cells. Description: Surface antibody staining and flow cytometry (MHC Class I/II). As for the experimental part: (§1) Intracellular staining and flow cytometric analyses of cytoplasmic Melan-A/MART-1, and gp100 expression were performed as described previously. Cells were fixed with 1% formaldehyde, permeabilized with 0.1% saponin, stained with monoclonal antibodies to melanocyte antigens. Antibodies were obtained with specificity for: Melan-A/MART-1 from Vector Labs (Burlingame, Calif.); gp100/HMB45 from DakoCytomation (Carpinteria, Calif.) and then visualized with goat anti-mouse FITC-conjugated secondary antibody from Invitrogen (Frederick, Md.). The level of EGFP was determined by flow cytometry of unfixed cells washed and resuspended in 1×PBS. Surface staining of MHC Class I was carried out using the antibody W6/32 on cells harvested with Cell Stripper from MediaTech Inc. (Manassas, Va.) and carried out on ice.
(§2) Cell were seeded at 1×10^6 cells in a T25 flask with 10 ml of media for the 4 day IFN-beta pre-treatments. Cells were then harvested and plated in 24 well plate at 1×10^5 cells per well in 1 ml of media for 3 day treatments.
(§3) For surface staining of HLA Class I and II antigens, cells were harvested using CellStripper™ from Mediatech (Manassas, Va.). All staining steps were performed on ice. Following a first incubation with antibody to Class I (W6/32) or Class II (L243) for 30 minutes. Stained cells were washed twice with cold PBS and then stained with a goat anti-mouse FITC secondary antibody to allow for quantitative analysis by flow cytometry. For evaluation of cytoplasmic antigens, including Melan-A/MART-1 and gp100, cells were first fixed in paraformaldehyde and permeabilized with saponin as previously described. Staining for cytoplasmic antigens was carried out at room temperature (22° C.).

Assay [4] concerns HeLa cervical carcinoma cells. Described as above. The following applies: for Class I MHC, geometric mean of surface staining (W6/32): 4 day IFN-β pre-treatment (5000 Units/ml), with PU-H71 0.3 where labelled (label IFN-β: no inhibitor). As for the experimental part:
as §1, §2, §3

Assay [5] has as its system MCF-7 breast cancer cells. Described as above. As for the experimental part:
as §1, §2, §3

[6] abbreviates: three days, IFN-β 5000 Units/ml, IFN-γ 100 ng/ml, PU-H71 0.3 mg/ml.
Where [7] appears, read: HeLa cells, Table 20, single agent or simultaneous combination.
The mark [8] stands for this setting: MCF-7 cells, Table 20, single agent or simultaneous combination.

Turning to `CO[C@H]1/C=C\C=C(/C)C(=O)NC2=CC(=O)C(NCCN3CCCC3)=C(C[C@@H](C)C[C@H](OC)[C@H](O)[C@@H](C)/C=C(\C)[C@@H]1OC(N)=O)C2=O` [17-AEP], in assay [1] (3 days), the “BRAF protein level (Western blot)” value is recorded as “reduces levels of BRAF”. Moreover, the “Phosphorylated MEK and Phosphorylated ERK levels (Western blot)” value in assay [1] (3 days (FIG. 17)) was “decreased levels”.
Consider `CCc1cc(-c2n[nH]c(C)c2-c2ccc3c(c2)OCCO3)c(O)cc1O` [CCT018159], for which, in assay [2], the “HMB45, level of induction relative to untreated control cells” value worked out at 1.81 and the “MART-1, level of induction relative to untreated control cells” value was found to be 3.04.
With `CC(C)NCCCn1c(Sc2cc3c(cc2I)OCO3)nc2c(N)ncnc21` [PU-H71], the “Class I MHC, geometric mean of surface staining (W6/32)” value in assay [3] (4 day IFN-β pre-treatment (5000 Units/ml), then 3 days with fresh IFN-β, with PU-H71 0.3 mg/ml where labelled (label IFN-β: no inhibitor)) was found to be 129; in assay [3] (4 day IFN-β pre-treatment (5000 Units/ml), then 3 days without IFN-β, with PU-H71 0.3 mg/ml where labelled (label IFN-β: no inhibitor)), 139; in assay [3] (single agent for 3 days, no IFN-β pre-treatment, IFN-β 5000 Units/ml, PU-H71 0.3 mg/ml), 157; in assay [4] (HeLa, then 3 days with fresh IFN-β) it was 137; in assay [4] (HeLa, then 3 days without IFN-β) it was 168; in assay [5] (MCF-7, 4 day IFN-β pre-treatment (5000 Units/ml), then 3 days with fresh IFN-β, with PU-H71 0.3 mg/ml where labelled (label IFN-β: no inhibitor)) it was 213. The “Class I MHC, geometric mean of surface staining (W6/32)” value in assay [5] (MCF-7, 4 day IFN-β pre-treatment (5000 Units/ml), then 3 days without IFN-β, with PU-H71 0.3 mg/ml where labelled (label IFN-β: no inhibitor)) worked out at 227; in assay [5] (MCF-7, single agent for 3 days, no IFN-β pre-treatment, IFN-β 5000 Units/ml, PU-H71 0.3 mg/ml), 61. The “L243 (MHC Class II surface staining)” value in assay [3] (single agent) is recorded as 79.0; in assay [4] (HELA, single agent) it was 3.5; in assay [4] (setting [7]), 3.8; in assay [4] (HeLa cells, Table 21, no pre-treatment, treatment as labelled) it was 4; in assay [4] (HeLa cells, Table 21, pre-treatment IFN-G (3 days), then treatment as labelled) it was 185; in assay [4] (HeLa cells, Table 21, substance given as pre-treatment (3 days) only, no subsequent treatment), 6. The “L243 (MHC Class II surface staining)” value was determined as 4.7 in assay [5] (MCF-7, single agent) and 4.7 in assay [5] (setting [8]). Further, the “MHC Class I, geometric mean of surface staining (W6/32)” value in assay [3] (setting [6]) stood at 139; in assay [3] (three days, IFN-β 5000 Units/ml, PU-H71 0.075-0.3 mg/ml) it was 79; in assay [4] (HeLa, three days, IFN-β 5000 Units/ml, IFN-γ 100 ng/ml, PU-H71 0.3), 402; in assay [4] (HeLa, three days, IFN-β 5000 Units/ml, PU-H71 0.075-0.3) it was 182; in assay [5] (MCF-7, three days, IFN-β 5000 Units/ml, PU-H71 0.075-0.3 mg/ml), 61. Moreover, the “MHC Class II, geometric mean of surface staining (L2443)” value in assay [3] (setting [6]) was 160; in assay [4] (HeLa, three days, IFN-β 5000 Units/ml, IFN-γ 100 ng/ml, PU-H71 0.3 mg/ml), 19. For the same molecule, the “W6/32 (MHC Class I surface staining)” value amounted to 286.6 in assay [4] (setting [7]) and 113.0 in assay [5] (setting [8]). The “Class II antigen level, sequential treatment” value in assay [4] (HeLa, IFN-gamma for 3 days, subsequently PU-H71) was “significantly greater than that achieved with IFN-gamma alone”. In assay [4] (HeLa, PU-H71 together with IFN-beta), the “Class I expression, combination” value is “do not show the synergy”. The “Class II induction, combination” value in assay [5] (MCF-7, PU-H71 and IFN-gamma) is recorded as “inhibited”. In assay [5] (MCF-7, addition of PU-H71), the “Class I stimulation induced with IFN-beta or IFN-gamma, combination” value is on record as “diminished”.
